Measurements reported in patent US20250288589A1, “PYRIDOPYRIMIDINES AND METHODS OF THEIR USE” (Kineta, Inc., priority 2021, published 2025).

How the values were obtained:
[1] = system: PIKFYVE TDP-43 yeast strain; assay: Propidium iodide viability assay in PIKFYVE TDP-43 yeast strain; type: cell-based
Excerpt: Generation of TDP-43 yeast model expressing human PIKfyve. Human PIKFYVE (“entry clone”) was cloned into pAG416GPDccdB (“destination vector”) according to standard Gateway cloning protocols (Invitrogen, Life Technologies). The resulting pAG416GPD-PIKFYVE plasmids were amplified in E. coli and plasmid identity confirmed by restriction digest and Sanger sequencing. Lithium acetate/polyethylene glycol-based transformation was used to introduce the above PIKFYVE plasmid into a BY4741 yeast strain auxotrophic for the ura3 gene and deleted for two transcription factors that regulate the xenobiotic efflux pumps, a major efflux pump, and FAB1, the yeast ortholog of PIKFYVE (MATa, snq2::KILeu2; pdr3::Klura3;pdr1::NATMX; fab1::G418^R, his3;leu2;ura3;met15;LYS2+) (FIG. 2).
Transformed yeast were plated on solid agar plates with complete synthetic media lacking uracil (CSM-ura) and containing 2% glucose. Individual colonies harboring the control or PIKFYVE TDP-43 plasmids were recovered. A plasmid containing wild-type TDP-43 under the transcriptional control of the GAL1 promoter and containing the hygromycin-resistance gene as a selectable marker was transformed into the fab1::G418^R pAG416GPD-PIKFYVE yeast strain (FIG. 1). Transformed yeast were plated on CSM-ura containing 2% glucose and […] after overnight recovery in media lacking antibiotic. Multiple independent isolates were further evaluated for cytotoxicity and TDP-43 expression levels.
Viability Assay. A control yeast strain with the wild-type yeast FAB1 gene and TDP-43 (“FAB1 TDP-43”, carries empty pAG416 plasmid), and the “PIKFYVE TDP-43” yeast strain, were assessed for toxicity using a propidium iodide viability assay. Both yeast strains were transferred from solid CSM-ura/2% glucose agar plates into 3 mL of liquid CSM-ura/2% glucose media for 6-8 hours at 30° C. with aeration. Yeast cultures were then diluted to an optical density at 600 nm wavelength (OD600) of 0.005 in 3 mL of CSM-ura/2% raffinose and grown overnight at 30° C. with aeration to an OD600 of 0.3-0.8. Log-phase overnight cultures were diluted to OD600 of 0.005 in CSM-ura containing either 2% raffinose or galactose and 150 μL dispensed into each well of a flat bottom 96-well plates. Compounds formulated in 100% dimethyl sulfoxide (DMSO) were serially diluted in DMSO and 1.5 μL diluted compound transferred to the 96-well plates using a multichannel pipet. Wells containing DMSO alone were also evaluated as controls for compound effects. Tested concentrations ranged from 15 μM to 0.11 μM. Cultures were immediately mixed to ensure compound distribution and covered plates incubated at 30° C. for 24 hours in a stationary, humified incubator.
Upon the completion of incubation, cultures were assayed for viability using propidium iodide (PI) to stain for dead/dying cells. A working solution of PI was made where, for each plate, 1 μL of 10 mM PI was added to 10 mL of CSM-ura (raffinose or galactose). The final PI solution (50 μL/well) was dispensed into each well of a new round bottom 96-well plate. The overnight 96-well assay plate was then mixed with a multichannel pipet and 50 μL transferred to the PI-containing plate. This plate was then incubated for 30 minutes at 30° C. in the dark. A benchtop flow cytometer (Miltenyi MACSquant) was then used to assess red fluorescence (B2 channel), forward scatter, and side scatter (with following settings: gentle mix, high flow rate, fast measurement, 10,000 events). Intensity histograms were then gated for “PI-positive” or “PI-negative” using the raffinose and galactose cultures treated with DMSO as controls. The DMSO controls for raffinose or galactose-containing cultures were used to determine the window of increased cell death and this difference set to 100. All compounds were similarly gated and then compared to this maximal window to establish the percent reduction in PI-positive cells.

[2] = system: FAB1 TDP-43 yeast strain; assay: Propidium iodide viability assay in FAB1 TDP-43 control yeast strain; type: cell-based; conditions: across a range of compound concentrations (FIG. 5, 0.23 μM shown)
Protocol: Generation of TDP-43 yeast model expressing human PIKfyve. Human PIKFYVE (“entry clone”) was cloned into pAG416GPDccdB (“destination vector”) according to standard Gateway cloning protocols (Invitrogen, Life Technologies). The resulting pAG416GPD-PIKFYVE plasmids were amplified in E. coli and plasmid identity confirmed by restriction digest and Sanger sequencing. […]
Transformed yeast were plated on solid agar plates with complete synthetic media lacking uracil (CSM-ura) and containing 2% glucose. […] Multiple independent isolates were further evaluated for cytotoxicity and TDP-43 expression levels.
Viability Assay. A control yeast strain with the wild-type yeast FAB1 gene and TDP-43 (“FAB1 TDP-43”, carries empty pAG416 plasmid), and the “PIKFYVE TDP-43” yeast strain, were assessed for toxicity using a propidium iodide viability assay. […] Wells containing DMSO alone were also evaluated as controls for compound effects. […]
Upon the completion of incubation, cultures were assayed for viability using propidium iodide (PI) to stain for dead/dying cells. […] A benchtop flow cytometer (Miltenyi MACSquant) was then used to assess red fluorescence (B2 channel), forward scatter, and side scatter (with following settings: gentle mix, high flow rate, fast measurement, 10,000 events). […]

## Cc1cccc(/C=N/Nc2cc(N3CCOCC3)n3nc(-c4ccncc4)cc3n2)c1 [APY0201, reference compound]
[1]; 0.23 μM (FIG. 6)
  propidium iodide-positive dead cells in PIKFYVE TDP-43 model: reduced the population of propidium iodide-positive dead cells
[1]; PIKFYVE TDP-43 model
  concentrations that afforded increased viability: 0.5 mM to less than 100 nM
[2]
  viable cells in FAB1 TDP-43: no increase in viable cells
